# Reference: patent US12559464B2, “Quinazolinone dione compounds and uses thereof” (Edgewise Therapeutics, Inc., priority 2023, dated 2026)
# What was measured:
# [1] = system: myosin ATPase, Rabbit Psoas myofibrils; assay: Myofibril ATPase assay, rabbit psoas (skeletal) myofibrils; format: biochemical; settings: concentration required to reduce myosin ATP-ase activity by 25%; Rabbit Psoas Prep pCa 25 GEOM_MEAN
# [2] = system: myosin ATPase, Porcine Atria myofibrils; assay: Myofibril ATPase assay, porcine atria myofibrils; format: biochemical; settings: concentration required to reduce myosin ATP-ase activity by 25%; Porcine Atria Prep pCa 25 GEOM_MEAN
# [3] = biological target: T1, myosin ATPase, Porcine Ventricle myofibrils (Sus scrofa, UniProt P79293); assay: Myofibril ATPase assay, porcine ventricle myofibrils; format: biochemical, porcine (Yucatan minipigs); settings: concentration required to reduce myosin ATP-ase activity by 25%; Porcine Ventricle Prep pCa 25 GEOM_MEAN
# T1 construct: Myofibrils from porcine cardiac muscle was isolated from the left ventricle of Yucatan minipigs; tissue Exemplar Genetics; host or cells: left ventricle of Yucatan minipigs, myofibrils
# T1 sequence (P79293 whole entry): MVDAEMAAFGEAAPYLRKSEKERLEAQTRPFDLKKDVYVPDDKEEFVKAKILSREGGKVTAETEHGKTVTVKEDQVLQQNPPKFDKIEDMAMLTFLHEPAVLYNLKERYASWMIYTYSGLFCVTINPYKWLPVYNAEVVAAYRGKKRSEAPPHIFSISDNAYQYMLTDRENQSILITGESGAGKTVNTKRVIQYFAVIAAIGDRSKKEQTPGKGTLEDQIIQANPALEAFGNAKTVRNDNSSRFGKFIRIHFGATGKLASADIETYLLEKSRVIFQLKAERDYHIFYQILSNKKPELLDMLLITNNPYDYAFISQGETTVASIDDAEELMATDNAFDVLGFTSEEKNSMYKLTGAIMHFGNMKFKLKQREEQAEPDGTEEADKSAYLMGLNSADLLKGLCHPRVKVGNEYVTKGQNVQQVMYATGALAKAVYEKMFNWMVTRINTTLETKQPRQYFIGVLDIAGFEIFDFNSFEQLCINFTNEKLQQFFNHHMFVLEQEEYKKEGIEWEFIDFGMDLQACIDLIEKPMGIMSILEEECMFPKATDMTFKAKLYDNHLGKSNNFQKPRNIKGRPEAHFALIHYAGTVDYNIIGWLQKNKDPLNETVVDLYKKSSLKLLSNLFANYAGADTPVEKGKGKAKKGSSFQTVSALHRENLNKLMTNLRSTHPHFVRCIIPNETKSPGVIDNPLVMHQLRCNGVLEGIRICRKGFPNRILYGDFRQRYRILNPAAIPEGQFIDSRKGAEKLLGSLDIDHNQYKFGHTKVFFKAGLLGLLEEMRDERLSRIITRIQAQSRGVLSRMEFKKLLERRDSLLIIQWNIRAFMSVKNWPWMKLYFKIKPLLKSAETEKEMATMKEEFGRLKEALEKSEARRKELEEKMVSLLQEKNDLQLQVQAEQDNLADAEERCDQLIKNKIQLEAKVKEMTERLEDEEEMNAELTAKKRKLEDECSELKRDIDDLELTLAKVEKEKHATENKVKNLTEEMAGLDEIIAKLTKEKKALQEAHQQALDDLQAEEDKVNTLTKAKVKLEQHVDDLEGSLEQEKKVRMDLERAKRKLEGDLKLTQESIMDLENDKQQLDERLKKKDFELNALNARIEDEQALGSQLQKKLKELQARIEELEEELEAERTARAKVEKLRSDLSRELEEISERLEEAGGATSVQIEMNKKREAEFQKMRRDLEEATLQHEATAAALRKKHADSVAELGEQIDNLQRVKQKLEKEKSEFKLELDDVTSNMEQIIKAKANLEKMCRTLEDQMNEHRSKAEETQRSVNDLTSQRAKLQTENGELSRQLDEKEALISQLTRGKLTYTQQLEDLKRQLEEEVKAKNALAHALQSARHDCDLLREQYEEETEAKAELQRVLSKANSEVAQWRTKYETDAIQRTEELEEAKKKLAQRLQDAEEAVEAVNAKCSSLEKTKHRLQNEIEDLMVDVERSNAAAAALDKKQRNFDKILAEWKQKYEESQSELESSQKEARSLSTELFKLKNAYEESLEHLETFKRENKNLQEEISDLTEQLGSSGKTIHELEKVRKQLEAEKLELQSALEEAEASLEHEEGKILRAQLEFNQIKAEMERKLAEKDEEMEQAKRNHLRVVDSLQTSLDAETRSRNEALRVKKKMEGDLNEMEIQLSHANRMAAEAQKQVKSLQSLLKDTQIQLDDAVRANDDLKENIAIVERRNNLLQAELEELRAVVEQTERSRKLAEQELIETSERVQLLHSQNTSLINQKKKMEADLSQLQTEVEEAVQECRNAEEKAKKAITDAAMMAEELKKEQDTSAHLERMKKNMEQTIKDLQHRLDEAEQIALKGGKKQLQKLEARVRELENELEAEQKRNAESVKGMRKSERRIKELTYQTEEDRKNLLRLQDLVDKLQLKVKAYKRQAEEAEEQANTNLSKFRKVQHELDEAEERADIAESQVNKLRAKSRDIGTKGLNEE
# Procedure, shortened: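 Myofibrils from Yucatan minipig left ventricle; ADP production coupled via PK-LDH to NADH loss, read kinetically at 340 nm every 1.5–2 min for 75 min in PIPES/MgCl2 pH 7.0 buffer. Slopes normalized to vehicle and fit to 4-parameter logistic; values are concentrations giving 75% (inhibition) or 125% (activation) of vehicle activity.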
SMILES,Rabbit Psoas EC25 (Y75 value) [1],Porcine Atria EC25 (Y75 value) [2],Porcine Ventricle EC25 (Y75 value) [3]
"C[C@H](NC(=O)Cn1c(=O)[nH]c2c(F)cccc2c1=O)c1ccc(F)cc1F [Compound 406, (S)-N-(1-(2,4-difluorophenyl)ethyl)-2-(8-fluoro-2,4-dioxo-1,4-dihydroquinazolin-3(2H)-yl)acetamide]",12.297 µM,63.31 µM,100 µM
"C[C@H](NC(=O)Cn1c(=O)[nH]c2cc(Cl)ccc2c1=O)c1ccc(F)cc1F [Compound 407, (S)-2-(7-chloro-2,4-dioxo-1,4-dihydroquinazolin-3(2H)-yl)-N-(1-(2,4-difluorophenyl)ethyl)acetamide]",7.16 µM,0.3539 µM,100 µM
"C[C@H](NC(=O)Cn1c(=O)[nH]c2c(Cl)cccc2c1=O)c1ccc(F)cc1F [Compound 408, (S)-2-(8-chloro-2,4-dioxo-1,4-dihydroquinazolin-3(2H)-yl)-N-(1-(2,4-difluorophenyl)ethyl)acetamide]",100 µM,100 µM,100 µM
"CC(C)CN(C(=O)Cn1c(=O)[nH]c2ccccc2c1=O)C(C)c1ccc(F)cc1F (stereo not drawn) [Compound 506, N-(1-(2,4-difluorophenyl)ethyl)-2-(2,4-dioxo-1,4-dihydroquinazolin-3(2H)-yl)-N-isobutylacetamide]",65.656 µM,33.59 µM,29.03 µM
"Cc1ccc(C(NC(=O)Cn2c(=O)[nH]c3ccccc3c2=O)c2ccccc2)cc1C (stereo not drawn) [Compound 516, N-((3,4-dimethylphenyl)(phenyl)methyl)-2-(2,4-dioxo-1,4-dihydroquinazolin-3(2H)-yl)acetamide]",100 µM,100 µM,100 µM
"CC(NC(=O)Cn1c(=O)[nH]c2ccccc2c1=O)c1cc(F)ccc1N(C)C (stereo not drawn) [Compound 518, N-(1-(2-(dimethylamino)-5-fluorophenyl)ethyl)-2-(2,4-dioxo-1,4-dihydroquinazolin-3(2H)-yl)acetamide]",100 µM,100 µM,100 µM
"COc1ccc(F)cc1C(C)NC(=O)Cn1c(=O)[nH]c2ccccc2c1=O (stereo not drawn) [Compound 520, 2-(2,4-dioxo-1,4-dihydroquinazolin-3(2H)-yl)-N-(1-(5-fluoro-2-methoxyphenyl)ethyl)acetamide]",100 µM,100 µM,100 µM
"CC(c1ccc(F)cc1F)N(C)C(=O)Cn1c(=O)[nH]c2ccccc2c1=O (stereo not drawn) [Compound 521, N-(1-(2,4-difluorophenyl)ethyl)-2-(2,4-dioxo-1,4-dihydroquinazolin-3(2H)-yl)-N-methylacetamide]",1.26 µM,100 µM,100 µM
"CC(NC(=O)Cn1c(=O)[nH]c2ccccc2c1=O)c1cc(F)ccc1F (stereo not drawn) [Compound 525, N-(1-(2,5-difluorophenyl)ethyl)-2-(2,4-dioxo-1,4-dihydroquinazolin-3(2H)-yl)acetamide]",5.727 µM,23.51 µM,100 µM
"Cc1nn(C)cc1C(C)NC(=O)Cn1c(=O)[nH]c2ccccc2c1=O (stereo not drawn) [Compound 602, N-(1-(1,3-dimethyl-1H-pyrazol-4-yl)ethyl)-2-(2,4-dioxo-1,4-dihydroquinazolin-3(2H)-yl)acetamide]",100 µM,100 µM,100 µM
"CC(NC(=O)Cn1c(=O)[nH]c2ccccc2c1=O)c1cnn(C)c1 (stereo not drawn) [Compound 603, 2-(2,4-dioxo-1,4-dihydroquinazolin-3(2H)-yl)-N-(1-(1-methyl-1H-pyrazol-4-yl)ethyl)acetamide]",100 µM,100 µM,100 µM
"CC(NC(=O)Cn1c(=O)[nH]c2ccccc2c1=O)C1CCCC1 (stereo not drawn) [Compound 605, N-(1-cyclopentylethyl)-2-(2,4-dioxo-1,4-dihydroquinazolin-3(2H)-yl)acetamide]",100 µM,100 µM,100 µM
"COc1cc2c(cc1OC)C(NC(=O)Cn1c(=O)[nH]c3ccccc3c1=O)CC2 (stereo not drawn) [Compound 703, N-(5,6-dimethoxy-2,3-dihydro-1H-inden-1-yl)-2-(2,4-dioxo-1,4-dihydroquinazolin-3(2H)-yl)acetamide]",100 µM,100 µM,100 µM
"O=C(Cn1c(=O)[nH]c2ccccc2c1=O)NCc1ccc(F)cc1F [Compound 5009, N-(2,4-difluorobenzyl)-2-(2,4-dioxo-1,4-dihydroquinazolin-3(2H)-yl)acetamide]",100 µM,100 µM,100 µM

# Further lines, results first:
Rabbit Psoas EC25 (Y75 value) [1],Porcine Atria EC25 (Y75 value) [2],Porcine Ventricle EC25 (Y75 value) [3],SMILES
100 µM,100 µM,100 µM,"O=C(Cn1c(=O)[nH]c2ccccc2c1=O)NC(c1ccc(Cl)cc1)c1cccs1 (stereo not drawn) [Compound 515, N-((4-chlorophenyl)(thiophen-2-yl)methyl)-2-(2,4-dioxo-1,4-dihydroquinazolin-3(2H)-yl)acetamide]"
100 µM,79.37 µM,100 µM,"CC(NC(=O)Cn1c(=O)[nH]c2ccccc2c1=O)c1cccc(F)c1 (stereo not drawn) [Compound 519, 2-(2,4-dioxo-1,4-dihydroquinazolin-3(2H)-yl)-N-(1-(3-fluorophenyl)ethyl)acetamide]"
100 µM,100 µM,100 µM,"COc1cccc(C(C)NC(=O)Cn2c(=O)[nH]c3ccccc3c2=O)c1 (stereo not drawn) [Compound 522, 2-(2,4-dioxo-1,4-dihydroquinazolin-3(2H)-yl)-N-(1-(3-methoxyphenyl)ethyl)acetamide]"
16.05 µM,7.86 µM,100 µM,"CC(NC(=O)Cn1c(=O)[nH]c2ccccc2c1=O)c1ccccc1Cl (stereo not drawn) [Compound 523, N-(1-(2-chlorophenyl)ethyl)-2-(2,4-dioxo-1,4-dihydroquinazolin-3(2H)-yl)acetamide]"
11.968 µM,73.54 µM,100 µM,"CC(NC(=O)Cn1c(=O)[nH]c2ccccc2c1=O)c1ccccc1Br (stereo not drawn) [Compound 524, N-(1-(2-bromophenyl)ethyl)-2-(2,4-dioxo-1,4-dihydroquinazolin-3(2H)-yl)acetamide]"
100 µM,100 µM,100 µM,"CC(NC(=O)Cn1c(=O)[nH]c2ccccc2c1=O)c1nccs1 (stereo not drawn) [Compound 601, 2-(2,4-dioxo-1,4-dihydroquinazolin-3(2H)-yl)-N-(1-(thiazol-2-yl)ethyl)acetamide]"
100 µM,100 µM,100 µM,"CC(NC(=O)Cn1c(=O)[nH]c2ccccc2c1=O)c1ccco1 (stereo not drawn) [Compound 604, 2-(2,4-dioxo-1,4-dihydroquinazolin-3(2H)-yl)-N-(1-(furan-2-yl)ethyl)acetamide]"
100 µM,100 µM,100 µM,"CC(NC(=O)Cn1c(=O)[nH]c2ccccc2c1=O)c1cccs1 (stereo not drawn) [Compound 606, 2-(2,4-dioxo-1,4-dihydroquinazolin-3(2H)-yl)-N-(1-(thiophen-2-yl)ethyl)acetamide]"
